Reference: patent US6869959B1, “Heterocyclic carboxylic acid derivatives” (Institute of Medicinal Molecular Design Inc., priority 1999, dated 2005)

How the values were obtained:
[1] = test system: promyelocytic leukemia cell stain HL-60; test: Cell differentiation-inducing activity test in HL-60 cell, each compound alone; type: cell-based; conditions: HL-60, NBT reduction
Source text: (§1) By using the above compounds, cell differentiation-inducing activity of each compound alone, and effect on cell differentiation-inducing action of a co-existing retinoid were examined. As a comparative and co-existing retinoid, Am80: 4-[(5,6,7,8-tetrahydro-5,5,8,8-tetramethyl-2-naphthalenyl)carbamoyl]benzoic acid (1×10^−10 M) was used. According to the method described in Japanese Patent Unexamined Publication (KOKAI) No.(Sho)61-76440/1986, promyelocytic leukemia cell stain HL-60 was used, and differentiation into granulocytic cells was determined by observing morphological change and measuring ability to reduce nitroblue tetrazolium (NBT). The ratios of differentiated cells shown in the following table were calculated from the ability of reducing NBT.

[2] = test system: promyelocytic leukemia cell stain HL-60; test: Effect on cell differentiation-inducing action of co-existing retinoid Am80 in HL-60 cell; type: cell-based; conditions: HL-60, NBT reduction
Source text: as §1

Cc1cc2c(cc1N(CC1CC1)c1ncc(C(=O)O)cn1)C(C)(C)CCC2(C)C [Compound 8, 2-[N-Cyclopropylmethyl-N-(5,6,7,8-tetrahydro-3,5,5,8,8-pentamethylnaphthalen-2-yl)amino]pyrimidine-5-carboxylic Acid]
melting point: 123 °C

CN(c1cc(C(C)(C)C)cc(C(C)(C)C)c1)c1ncc(C(=O)O)cn1 [Compound 9, 2-[N-(3,5-Di-tert-butylphenyl)-N-methylamino] pyrimidine-5-carboxylic Acid]
melting point: 261 to 263 °C

Cc1cc2c(cc1Nc1ncc(C(=O)O)cn1)C(C)(C)CCC2(C)C [Compound 5, 2-[N-(5,6,7,8-Tetrahydro-3,5,5,8,8-pentamethylnaphthalen-2-yl)amino]pyrimidine-5-carboxylic Acid]
melting point: 267 °C

CCCN(c1ncc(C(=O)O)cn1)c1cc2c(cc1C)C(C)(C)CCC2(C)C [Compound 7, 2-[N-n-Propyl-N-(5,6,7,8-tetrahydro-3,5,5,8,8-pentamethyl-naphthalen-2-yl)amino]pyrimidine-5-carboxylic Acid]
melting point: 193 °C

CC(C)(C)c1cc(N(CC2CC2)c2ncc(C(=O)O)cn2)cc(C(C)(C)C)c1 [Compound 12, 2-[N-Cyclopropylmethyl-N-(3,5-di-tert-butylphenyl)-amino]pyrimidine5-carboxylic Acid]
melting point: 194 °C

CCCN(c1ncc(C(=O)O)cn1)c1cc(C(C)(C)C)ccc1C(C)(C)C [Compound 11, 2-[N-(3,6-Di-tert-butylphenyl)-N-n-propylamino]pyrimidine-5-carboxylic Acid]
melting point: 219 °C

CCCN(c1ccc2c(c1)C(C)(C)CCC2(C)C)c1ncc(C(=O)O)cn1 [Compound 3]
Ratio of differentiated cells by each compound alone (%) ([1]; compound concentration 10^−6 M): 16% | Ratio of differentiated cells by each compound alone (%) ([1]; compound concentration 10^−7 M): 14% | Ratio of differentiated cells by each compound alone (%) ([1]; compound concentration 10^−8 M): 9% | Ratio of differentiated cells by each compound co-existing with 1 × 10^−10 M Am80 (%) ([2]; compound concentration 10^−7 M + 1 × 10^−10 M Am80): 89% | Ratio of differentiated cells by each compound co-existing with 1 × 10^−10 M Am80 (%) ([2]; compound concentration 10^−8 M + 1 × 10^−10 M Am80): 87% | Ratio of differentiated cells by each compound co-existing with 1 × 10^−10 M Am80 (%) ([2]; compound concentration 10^−9 M + 1 × 10^−10 M Am80): 90% | Ratio of differentiated cells by each compound co-existing with 1 × 10^−10 M Am80 (%) ([2]; compound concentration 10^−10 M + 1 × 10^−10 M Am80): 60% | Ratio of differentiated cells by each compound co-existing with 1 × 10^−10 M Am80 (%) ([2]; compound concentration 10^−11 M + 1 × 10^−10 M Am80): 27%
